What all share (assay type): cell-based
The subject of experiment [1] is Blood stage forms of Trypanosoma brucei brucei. As to the kind of experiment: In vitro antitrypanosomal assay. As to conditions: NA: not active.
Experiment [2] concerns Leishmania donovani promastigotes. As to the kind of experiment: In vitro antileishmanial assay, promastigotes. The settings on record: for IC50: read-out: L. donovani promastigotes IC50; for IC90: read-out: L. donovani promastigotes IC90.
Experiment [3] concerns Leishmania donovani axenic amastigotes. As to the kind of experiment: In vitro antileishmanial assay, axenic amastigotes. As to conditions: for IC50: read-out: L. donovani Axenic amastigotes IC50; for IC90: read-out: L. donovani Axenic amastigotes IC90.
Experiment [4] has as its system Plasmodium falciparum chloroquine resistant (W2, Indo China). The experiment in a line: In vitro antimalarial assay. As to conditions: W2, read-out: P. falciparum IC50 (W2).
Experiment [5] concerns Plasmodium falciparum chloroquine sensitive (D6, Sierra Leone). As to the kind of experiment: In vitro antimalarial assay. The settings on record: D6, read-out: P. falciparum IC50 (D6).

The IC50 is the midpoint of a concentration-inhibition curve. Usually IC90 stands for the concentration needed for an effect of 90%.

In the case of `NCCCC(N)(C(=O)O)C(F)F` (stereo not shown) [DFMO, difluoromethylornithine], in experiment [1] (Table 3), the “T. brucei IC9” value stood at 59.175 ± 5.748 µM. In experiment [1] (read-out: Trypanosoma brucei IC50), the IC50 stood at 21300 ± 2010 nM. Besides, in experiment [1] (read-out: Trypanosoma brucei IC90), the IC90 came out at 59200 ± 5750 nM.
Turning to `C[C@@H]1[C@H](O)[C@@H](C)/C=C/C=C/C=C/C=C/C=C/C=C/C=C/[C@H](O[C@@H]2O[C@H](C)[C@@H](O)[C@H](N)[C@@H]2O)C[C@@H]2O[C@](O)(C[C@@H](O)C[C@@H](O)[C@H](O)CC[C@@H](O)C[C@@H](O)CC(=O)O[C@H]1C)C[C@H](O)[C@H]2C(=O)O` [Amp B, Amphotericin B], in experiment [2], the IC50 was 192 nM and the IC90 was 312 nM. Besides, in experiment [3], the IC50 came out at 1730 nM and the IC90 turned out to be 2000 nM.
On to `N=C(N)c1ccc(OCCCCCOc2ccc(C(=N)N)cc2)cc1` [Pent, pentamidine], for which, in experiment [2], the IC50 was determined as 2040 nM and the IC90 was 3670 nM. Also, in experiment [3], the IC50 worked out at 15300 nM and the IC90 turned out to be 16900 nM.
Take `CCN(CC)CCCC(C)Nc1ccnc2cc(Cl)ccc12` (stereo not shown) [CQ, chloroquine]: the IC50 in experiment [4] came to 460 nM; in experiment [5] it was 52 nM.

These data come from article PMC6203334 (Medicinal chemistry research : an international journal for …, 2018).
